Data from PubChem BioAssay AID1996.
≈ marks a conversion by molar mass, not a printed value.

details: buffer; pH 7.4; 200.0 µM

solubility kinetic	Structure (SMILES)
> 54.7 µg/mL	Cc1ccc(C)c(NC(=O)CN(C)C(=O)c2cc3ccccc3oc2=O)c1
4.9 µg/mL (≈ 17.2 µM)	O=C(CCCC(=O)c1ccccc1)Nc1ccc(F)cc1
> 42 µg/mL	COC(=O)c1ccccc1Oc1cnc2ccccc2n1
> 39.8 µg/mL	CC1=C(C)CC(C(=O)NC2CCCC2)C(C(=O)O)C1 (stereo not given)
0.2 µg/mL (≈ 0.729 µM)	Nc1ccc(-c2ccc(N)c([N+](=O)[O-])c2)cc1[N+](=O)[O-]
> 50.9 µg/mL	CC(=O)Nc1ccc(NC(C)=O)c(NC2OCC(O)C(O)C2O)c1 (stereo not given)
2.2 µg/mL (≈ 6.81 µM)	Cc1ccc(OCc2ccc(Br)cc2)c([N+](=O)[O-])n1
41.4 µg/mL (≈ 149 µM)	O=c1oc2ccccc2c(Cl)c1CN1CCCCC1
> 45.1 µg/mL	Cc1ccc(N2CC(C(=O)N3CCCCC3)CC2=O)cc1C (stereo not given)
53.7 µg/mL (≈ 147 µM)	COc1ccc(S(=O)(=O)N2CCN(C(=O)C3CCCCC3)CC2)cc1
6.2 µg/mL (≈ 16.5 µM)	O=C(NC12CC3CC(CC(C3)C1)C2)N(Cc1ccccc1)Cc1ccncc1
25.6 µg/mL (≈ 132 µM)	CNC(=S)NCCc1ccccc1
2 µg/mL (≈ 5.71 µM)	O=C(Nc1ccccc1)/C(=C\c1ccc(F)cc1)NC(=O)c1ccco1
2.3 µg/mL (≈ 7.2 µM)	CCn1c2ccccc2c2cc(NC(=O)c3cc(C)on3)ccc21
37.1 µg/mL (≈ 135 µM)	CC(C)c1ccccc1OCCCCN1CCCCC1
46 µg/mL (≈ 132 µM)	CCC(=O)OCC(=O)Nc1cc(S(=O)(=O)N(C)C)ccc1Cl
45.7 µg/mL (≈ 145 µM)	CCC(=O)Nc1c(-c2ccc3ccccc3c2)nc2ccccn12
> 35.6 µg/mL	CC12CCC(C(=O)N(CC3CO3)C1=O)C2(C)C (stereo not given)
4.1 µg/mL (≈ 8.37 µM)	O=C(COc1cccc(Br)c1)Nc1ccc(Cl)c(S(=O)(=O)N2CCOCC2)c1

solubility kinetic	Structure (SMILES)
> 45.1 µg/mL	Cc1c(C(=O)NCc2ccccn2)oc2c(Cl)cccc12
47.1 µg/mL (≈ 140 µM)	O=C(Nc1c(-c2cccs2)nc2ccccn12)c1ccccc1F
5 µg/mL (≈ 17.2 µM)	O=C1C2C3CCC(C3)C2C(=O)N1c1ccc2ccccc2c1 (stereo not given)
4.4 µg/mL (≈ 11.3 µM)	CCCCOc1ccc(C(=O)OCC(=O)c2c(N)n(C)c(=O)n(C)c2=O)cc1
> 45.6 µg/mL	COc1cccc(NC(=O)COC(=O)c2c(C)noc2C)c1
1.7 µg/mL (≈ 5.16 µM)	COc1cc(/C=C2\SC(N)=NC2=O)cc(Br)c1O
37.7 µg/mL (≈ 133 µM)	N#C/C(=C\c1ccccc1Cl)C(=O)Nc1ccccn1
39.7 µg/mL (≈ 146 µM)	COc1ccccc1NC(=O)c1ccc2c(c1)OCO2
< 0.7 µg/mL	Cc1ccc(C23CC4CC(CC(C(=O)NC(C)C)(C4)C2)C3)cc1
> 63.8 µg/mL	COC(=O)Nc1ccc(S(=O)(=O)N2CCCC(C(=O)NCC3CCCO3)C2)cc1 (stereo not given)
> 52.2 µg/mL	CC(C)C[C@H](N)c1nnc(SCc2ccc(Cl)cc2)o1.Cl
48.5 µg/mL (≈ 148 µM)	COCC(C)NC(=S)N1CCN(c2ccccc2Cl)CC1 (stereo not given)
> 31.5 µg/mL	O=C1NCCCC1C(=O)N1CCCCC1 (stereo not given)
43.6 µg/mL (≈ 122 µM)	COc1cc(C(F)(F)F)c(C(=O)N(C)Cc2cccc(Cl)c2)cn1
> 34.4 µg/mL	Cc1ccc(N2C(=O)C3C=NNC3C2=O)cc1 (stereo not given)
1.2 µg/mL (≈ 3.32 µM)	CCNS(=O)(=O)c1ccc(NC(=S)N2CCc3ccccc32)cc1
> 46.9 µg/mL	OCCC1CN(CC#Cc2ccccc2)CCN1C1CCCC1 (stereo not given)
14.6 µg/mL (≈ 49.9 µM)	COc1ccc(C(=O)CCC(=O)NC2=NCCS2)cc1
0.5 µg/mL (≈ 1.86 µM)	COC(=O)Nc1ccc2c(c1)Nc1ccccc1CC2

solubility kinetic	Structure (SMILES)
> 50.5 µg/mL	NC(=O)c1ccsc1NC(=O)CN1C(=O)NC2(CCCC2)C1=O
18.3 µg/mL (≈ 67 µM)	COc1ccccc1COC(=O)N/C=C/c1ccco1
> 43.2 µg/mL	O=C(CSc1ncnc2ccccc12)N1CCNC1=O
> 53.8 µg/mL	Cc1nc(N2CCC(C(N)=O)CC2)c2c(-c3cccs3)csc2n1
5.3 µg/mL (≈ 13.9 µM)	COc1cc(N)c(Cl)cc1C(=O)OCC(=O)NC(=O)NCc1ccco1
> 41.4 µg/mL	O=[N+]([O-])c1ccc(SCCO)nc1SCCO
54.6 µg/mL (≈ 144 µM)	O=C(OCC(=O)N1CCOCC1)c1ccc(N2CCOCC2)c([N+](=O)[O-])c1
39.1 µg/mL (≈ 145 µM)	O=C(c1cc(-c2ccccc2)on1)N1CCCCCC1
3 µg/mL (≈ 9.31 µM)	COc1cccc2cc(C(=O)NCc3ccc(C)cc3)c(=N)oc12
> 49 µg/mL	COc1ccc(C2C(C#N)=C(N)OC3=C2C(=O)CCC3)cc1OC (stereo not given)
11.9 µg/mL (≈ 32 µM)	CCOc1cc(N2CCOCC2)c(OCC)cc1NC(=O)c1cnccn1
4.7 µg/mL (≈ 14.1 µM)	CCCCOc1ccc(C(=O)NCC(=O)NC2CCCCC2)cc1
> 37.7 µg/mL	CCOC(=O)CNC(=O)Cc1ccc(OC)cc1
> 40.2 µg/mL	O=C(NC(=S)N1CCOCC1)c1ccc(F)cc1
18.3 µg/mL (≈ 56.8 µM)	COc1ccc(/C=C(\C#N)C(=O)NC(C)c2ccccc2)cc1O (stereo not given)
> 40.9 µg/mL	CCC(=O)N1CCc2nc(-c3ccccc3)sc2C1
38.3 µg/mL (≈ 117 µM)	COc1ccc(CC(=O)N2CCN(c3ccc(F)cc3)CC2)cc1
3 µg/mL (≈ 9.14 µM)	COc1ccc(C(=O)Nc2ccc3nc(C)sc3c2)cc1OC
25.5 µg/mL (≈ 135 µM)	NC(=O)CCn1cnc2ccccc21

Structure (SMILES)	solubility kinetic
O=C1CC(=O)N(c2cccc(Br)c2)C(=O)N1	39.2 µg/mL (≈ 138 µM)
COc1cc2c(C(=O)O)c(C)n(C)c2cc1Br	> 44.7 µg/mL
N#Cc1ccc(NC(=O)CN2CCCCCC2)cc1Cl	26.4 µg/mL (≈ 90.5 µM)
